Results on 22 compounds are retold here after patent US10874743B2, “IRAK degraders and uses thereof” (Kymera Therapeutics, Inc., priority 2017, dated 2020).

In the test the target is T1, IRAK4 (Homo sapiens, UniProt Q9NWZ3).
T1 sequence (Q9NWZ3 1-460): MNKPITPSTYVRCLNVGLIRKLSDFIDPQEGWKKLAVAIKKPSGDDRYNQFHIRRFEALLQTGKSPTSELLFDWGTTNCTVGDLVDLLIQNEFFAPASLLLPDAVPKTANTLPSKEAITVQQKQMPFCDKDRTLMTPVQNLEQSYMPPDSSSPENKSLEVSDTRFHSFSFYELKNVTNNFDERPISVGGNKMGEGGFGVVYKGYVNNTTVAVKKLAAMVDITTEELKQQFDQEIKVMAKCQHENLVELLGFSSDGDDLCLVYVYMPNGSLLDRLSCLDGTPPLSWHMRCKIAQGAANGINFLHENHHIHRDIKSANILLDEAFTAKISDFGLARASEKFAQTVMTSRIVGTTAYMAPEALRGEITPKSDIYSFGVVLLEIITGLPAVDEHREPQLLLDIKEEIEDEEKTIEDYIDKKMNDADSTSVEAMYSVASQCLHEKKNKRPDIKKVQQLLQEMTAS
The test can be described thus: OCI-LY-10 degradation assay (western blot, % IRAK4 degraded after 4 hours). In kind it is cell-based. The arrangement: endogenous in cells; host or cells: OCI-LY10. As to conditions: OCI-LY10 cells; for OCI-LY10 % IRAK4 Degradation (0.01 uM) / OCI-LY10 % IRAK4 Degradation (0.1 uM) / OCI-LY10 % IRAK4 Degradation (1 uM): 4 hours; for OCI-LY10 % IRAK4 Degradation (0.01 uM): 0.01 uM compound; for OCI-LY10 % IRAK4 Degradation (0.1 uM): 0.1 uM compound; for OCI-LY10 % IRAK4 Degradation (1 uM): 1 uM compound; for OCI-LY10 % IRAK4 Degradation: IRAK4 degraded after 4 hours, western blot. Summed up:
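OCI-LY10 cells (RPMI-1640, 20% FBS, 55 μM 2-ME) treated with compound at 0.003-10 μM final for 4 h at 37° C, then lysed in RIPA buffer. IRAK4 level read by fluorescent western blot (20-25 μg protein) and binned as % degraded: A >50%, B >20-50%, C <20%.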

Take `NC(=O)c1nn(-c2ccc(CNCC3CCCCN3CCOCCNc3cccc4c3C(=O)N(C3CCC(=O)NC3=O)C4=O)cc2)cc1NC(=O)c1coc(-c2ccnc(NCC(F)(F)F)c2)n1` (stereo not drawn) [I-306]: the “OCI-LY10 % IRAK4 Degradation (0.01 uM)” value is listed as “C (<20% degradation)”, the “OCI-LY10 % IRAK4 Degradation (0.1 uM)” value is “B (>20-50% degradation)” and the “OCI-LY10 % IRAK4 Degradation (1 uM)” value is reported as “B (>20-50% degradation)”.

Take `O=C1CCC(N2C(=O)c3cccc(OCC(F)CNC(=O)c4cnc(Nc5ccc6cnccc6n5)cc4NC4CC4)c3C2=O)C(=O)N1` (stereo not drawn) [I-174, 4-(Cyclopropylamino)-N-[3-[2-(2,6-dioxo-3-piperidyl)-1,3-dioxo-isoindolin-4-yl]oxy-2-fluoro-propyl]-6-(1,6-naphthyridin-2-ylamino)pyridine-3-carboxamide]: the “OCI-LY10 % IRAK4 Degradation” value is “C (<20% degradation)”.

As for `O=C1CCC(N2C(=O)c3cccc(NCCNCCOCCNC(=O)c4ccc(-n5cc(NC(=O)c6coc(-c7ccnc(NCC8CC8)c7)n6)c(C(F)(F)F)n5)cc4)c3C2=O)C(=O)N1` (stereo not drawn) [I-222], the “OCI-LY10 % IRAK4 Degradation (0.01 uM)” value is given as “A (>50% degradation)”, the “OCI-LY10 % IRAK4 Degradation (0.1 uM)” value is listed as “A (>50% degradation)” and the “OCI-LY10 % IRAK4 Degradation (1 uM)” value was “A (>50% degradation)”. In the case of `NC(=O)c1nn(-c2ccc(COCCOCCOCCNc3cccc4c3C(=O)N(C3CCC(=O)NC3=O)C4=O)cc2)cc1NC(=O)c1coc(-c2ccnc(NCC(F)(F)F)c2)n1` (stereo not drawn) [I-92, N-[3-carbamoyl-1-[4-[2-[2-[2-[[2-(2,6-dioxo-3-piperidyl)-1,3-dioxo-isoindolin-4-yl]amino]ethoxy]ethoxy]ethoxymethyl]phenyl]pyrazol-4-yl]-2-[2-(2,2,2-trifluoroethylamino)-4-pyridyl]oxazole-4-carboxamide], the “OCI-LY10 % IRAK4 Degradation” value was “A (>50% degradation)”.

In the case of `O=C1CCC(N2C(=O)c3cccc(NCCOCCOCCOCCOCCn4cc(NC(=O)c5coc(-c6ccnc(NCC7CC7)c6)n5)c(C(F)F)n4)c3C2=O)C(=O)N1` (stereo not drawn) [I-254], the “OCI-LY10 % IRAK4 Degradation (0.01 uM)” value is given as “C (<20% degradation)”, the “OCI-LY10 % IRAK4 Degradation (0.1 uM)” value is “C (<20% degradation)” and the “OCI-LY10 % IRAK4 Degradation (1 uM)” value was “B (>20-50% degradation)”. On to `N#Cc1cnc2c(cnn2-c2cc(NC3CC3)c(C(=O)NCC(F)COc3cccc4c3C(=O)N(C3CCC(=O)NC3=O)C4=O)cn2)c1` (stereo not drawn) [I-173, 6-(5-Cyanopyrazolo[3,4-b]pyridin-1-yl)-4-(cyclopropylamino)-N-[3-[2-(2,6-dioxo-3-piperidyl)-1,3-dioxo-isoindolin-4-yl]oxy-2-fluoro-propyl]pyridine-3-carboxamide], for which the “OCI-LY10 % IRAK4 Degradation” value is reported as “C (<20% degradation)”.

As for `O=C1CCC(N2C(=O)c3cccc(CCCNCc4ccc(-n5cc(NC(=O)c6coc(-c7ccnc(NCC8CC8)c7)n6)c(C(F)F)n5)cc4)c3C2=O)C(=O)N1` (stereo not drawn) [I-357], the “OCI-LY10 % IRAK4 Degradation (0.01 uM)” value is recorded as “C (<20% degradation)”, the “OCI-LY10 % IRAK4 Degradation (0.1 uM)” value was “C (<20% degradation)” and the “OCI-LY10 % IRAK4 Degradation (1 uM)” value was “C (<20% degradation)”. With `O=C1CCC(N2C(=O)c3cccc(OCCc4cnnn4CCOCCOCCNCc4ccc(-n5cc(NC(=O)c6coc(-c7ccnc(NCC8CC8)c7)n6)c(C(F)F)n5)cc4)c3C2=O)C(=O)N1` (stereo not drawn) [I-346], the “OCI-LY10 % IRAK4 Degradation (0.01 uM)” value is given as “B (>20-50% degradation)”, the “OCI-LY10 % IRAK4 Degradation (0.1 uM)” value is “A (>50% degradation)” and the “OCI-LY10 % IRAK4 Degradation (1 uM)” value is “A (>50% degradation)”. Take `NC(=O)c1nn(-c2ccc(CNCCOCCCc3cccc4c3CN(C3CCC(=O)NC3=O)C4=O)cc2)cc1NC(=O)c1coc(-c2ccnc(NCC(F)(F)F)c2)n1` (stereo not drawn) [I-318]: the “OCI-LY10 % IRAK4 Degradation (0.01 uM)” value is “C (<20% degradation)”, the “OCI-LY10 % IRAK4 Degradation (0.1 uM)” value is recorded as “A (>50% degradation)” and the “OCI-LY10 % IRAK4 Degradation (1 uM)” value was “B (>20-50% degradation)”. Regarding `O=C1CCC(N2C(=O)c3cccc(NCc4cn(CCOCCOCCNCc5ccc(-n6cc(NC(=O)c7coc(-c8ccnc(NCC9CC9)c8)n7)c(C(F)F)n6)cc5)nn4)c3C2=O)C(=O)N1` (stereo not drawn) [I-340], the “OCI-LY10 % IRAK4 Degradation (0.01 uM)” value is “C (<20% degradation)”, the “OCI-LY10 % IRAK4 Degradation (0.1 uM)” value was “A (>50% degradation)” and the “OCI-LY10 % IRAK4 Degradation (1 uM)” value was “A (>50% degradation)”.

For the compound `NC(=O)[C@@H](O)C[C@H]1CCc2sc3ncnc(OC4CCC(N5CCN(C(=O)COCCOCCOCCOCCNc6cccc7c6C(=O)N(C6CCC(=O)NC6=O)C7=O)CC5)CC4)c3c21` (stereo partly drawn) [I-161, (2S)-3-[(8R)-1-[4-[4-[2-[2-[2-[2-[2-[[2-(2,6-dioxo-3-piperidyl)-1,3-dioxo-isoindolin-4-yl]amino]ethoxy]ethoxy]ethoxy]ethoxy]acetyl]piperazin-1-yl]cyclohexoxy]-7,8-dihydro-6H-cyclopenta[4,5]thieno[1,2-c]pyrimidin-8-yl]-2-hydroxy-propanamide], the “OCI-LY10 % IRAK4 Degradation” value is listed as “C (<20% degradation)”. Same read-out and setting: the same measure for `NC(=O)c1nn(-c2ccc(C(=O)NCCOCCOCCOCCOCC#Cc3ccc4c(c3)C(=O)N(C3CCC(=O)NC3=O)C4=O)cc2)cc1NC(=O)c1coc(-c2ccnc(NCC(F)(F)F)c2)n1` (stereo not drawn) [I-149]: “A (>50% degradation)”; for `N#Cc1cnc2c(cnn2-c2cc(NC3CC3)c(C(=O)N[C@H]3CC[C@H](C(=O)NCCOCCNCCOCCOCCNc4cccc5c4C(=O)N(C4CCC(=O)NC4=O)C5=O)CC3)cn2)c1` (stereo partly drawn) [I-45, 6-(5-cyano-1H-pyrazolo[3,4-b]pyridin-1-yl)-4-(cyclopropylamino)-N-((1R,4R)-4-((14-((2-(2,6-dioxopiperidin-3-yl)-1,3-dioxoisoindolin-4-yl)amino)-3,9,12-trioxa-6-azatetradecyl)carbamoyl)cyclohexyl)nicotinamide]: “C (<20% degradation)”. In the case of `O=C1CCC(N2C(=O)c3cccc(NCCOCC(F)CNC(=O)c4cnc(Nc5ccc6cnccc6n5)cc4NC4CC4)c3C2=O)C(=O)N1` (stereo not drawn) [I-81], the “OCI-LY10 % IRAK4 Degradation” value is reported as “C (<20% degradation)”.

`NC(=O)c1nn(C2CN(CCOCCOCCOCCNc3cccc4c3C(=O)N(C3CCC(=O)NC3=O)C4=O)C2)cc1NC(=O)c1coc(-c2ccnc(NCC(F)(F)F)c2)n1` (stereo not drawn) [I-169, N-[3-carbamoyl-1-[1-[2-[2-[2-[2-[[2-(2,6-dioxo-3-piperidyl)-1,3-dioxo-isoindolin-4-yl]amino]ethoxy]ethoxy]ethoxy]ethyl]azetidin-3-yl]pyrazol-4-yl]-2-[2-(2,2,2-trifluoroethylamino)-4-pyridyl]oxazole-4-carboxamide]: the “OCI-LY10 % IRAK4 Degradation” value is given as “C (<20% degradation)”. Consider `O=C1CCC(N2C(=O)c3ccc(NCCc4cnnn4CCOCCOCCNCc4ccc(-n5cc(NC(=O)c6coc(-c7ccnc(NCC8CC8)c7)n6)c(C(F)F)n5)cc4)cc3C2=O)C(=O)N1` (stereo not drawn) [I-343], for which the “OCI-LY10 % IRAK4 Degradation (0.01 uM)” value is given as “C (<20% degradation)”, the “OCI-LY10 % IRAK4 Degradation (0.1 uM)” value was “B (>20-50% degradation)” and the “OCI-LY10 % IRAK4 Degradation (1 uM)” value is recorded as “A (>50% degradation)”. In the case of `CC(OCCOCCOCCOCCNc1cccc2c1C(=O)N(C1CCC(=O)NC1=O)C2=O)C(F)CNC(=O)c1cnc(-n2ncc3cc(C#N)cnc32)cc1NC1CC1` (stereo not drawn) [I-71], the “OCI-LY10 % IRAK4 Degradation” value is “C (<20% degradation)”. Take `NC(=O)c1nn(-c2ccc(CNCCCCCOCCCc3cccc4c3C(=O)N(C3CCC(=O)NC3=O)C4=O)cc2)cc1NC(=O)c1coc(-c2ccnc(NCC3CC3)c2)n1` (stereo not drawn) [I-311]: the “OCI-LY10 % IRAK4 Degradation (0.01 uM)” value is reported as “C (<20% degradation)”, the “OCI-LY10 % IRAK4 Degradation (0.1 uM)” value is on record as “A (>50% degradation)” and the “OCI-LY10 % IRAK4 Degradation (1 uM)” value is listed as “A (>50% degradation)”. As to `NC(=O)c1nn(-c2ccc(COCCOCCOCCOCCNC(=O)COc3cccc4c3C(=O)N(C3CCC(=O)NC3=O)C4=O)cc2)cc1NC(=O)c1coc(-c2ccnc(NCC(F)(F)F)c2)n1` (stereo not drawn) [I-105, N-[3-carbamoyl-1-[4-[2-[2-[2-[2-[[2-[2-(2,6-dioxo-3-piperidyl)-1,3-dioxo-isoindolin-4-yl]oxyacetyl]amino]ethoxy]ethoxy]ethoxy]ethoxymethyl]phenyl]pyrazol-4-yl]-2-[2-(2,2,2-trifluoroethylamino)-4-pyridyl]oxazole-4-carboxamide], the “OCI-LY10 % IRAK4 Degradation” value is recorded as “A (>50% degradation)”. With `O=C1CCC(N2C(=O)c3cccc(NCCOCCOCCNC(=O)c4ccc(-n5cc(NC(=O)c6coc(-c7ccnc(NCC8CC8)c7)n6)c(C(F)(F)F)n5)cc4)c3C2=O)C(=O)N1` (stereo not drawn) [I-220], the “OCI-LY10 % IRAK4 Degradation (0.01 uM)” value is recorded as “B (>20-50% degradation)”, the “OCI-LY10 % IRAK4 Degradation (0.1 uM)” value is “B (>20-50% degradation)” and the “OCI-LY10 % IRAK4 Degradation (1 uM)” value was “B (>20-50% degradation)”. Take `NC(=O)c1nn(-c2ccc(C(=O)NCC#CC#CCCNc3cccc4c3C(=O)N(C3CCC(=O)NC3=O)C4=O)cc2)cc1NC(=O)c1coc(-c2ccnc(NCC(F)(F)F)c2)n1` (stereo not drawn) [I-178, N-[3-carbamoyl-1-[4-[7-[[2-(2,6-dioxo-3-piperidyl)-1,3-dioxo-isoindolin-4-yl]amino]hepta-2,4-diynylcarbamoyl]phenyl]pyrazol-4-yl]-2-[2-(2,2,2-trifluoroethylamino)-4-pyridyl]oxazole-4-carboxamide]: the “OCI-LY10 % IRAK4 Degradation” value is “C (<20% degradation)”. As to `N#Cc1cnc2c(cnn2-c2cc(NC3CC3)c(C(=O)NCC(F)CCOCCOCCOCCNc3cccc4c3C(=O)N(C3CCC(=O)NC3=O)C4=O)cn2)c1` (stereo not drawn) [I-88], the “OCI-LY10 % IRAK4 Degradation” value is given as “C (<20% degradation)”.
